Drawing on patent US20030079241A1, “Premalignant, serially-transplantable breast tissue lines and uses thereof” (priority 2001, published 2003), this text covers development of tumors for one molecule.

For this experiment, the system named is HPO line A. Briefly: Effect of tamoxifen on tumor development in mice with bilateral implants of HPO line A. The class given is in vivo. Conditions: mice receiving bilateral implants of HPO line A; after 15 weeks; all control vehicle mice developed bilateral tumors. As for the experimental part:
The instant invention also provides a method of using the above described premalignant serially-transplantable, hyperplastic outgrowth (HPO) breast tissue lines to screen for new chemopreventative agents against breast cancer. The serially-transplantable breast tissue lines are implanted into the inguinal mammary fat pads of syngeneic, non-transgenic recipient mice. Putative chemopreventative agents are administered to a subset of the implanted mice.
Breast tissue lines A, B, C, D, and E from zone 4 all express high levels of estrogen receptor, which is also expressed in human premalignant breast cells. This is important for testing chemopreventive agents that rely on this receptor. Moreover, the effects of tamoxifen on the development of tumors in mice receiving bilateral implants of HPO line A were examined.

In the case of `CC/C(=C(\c1ccccc1)c1ccc(OCCN(C)C)cc1)c1ccccc1` [tamoxifen], the development of tumors entry is reported as “None of the mice receiving tamoxifen developed tumors after 15 weeks”.
